Results from ChEMBL document CHEMBL3860026, “Depsidones from Lichens as Natural Product Inhibitors of M-Phase Phosphoprotein 1, a Human Kinesin Required for Cytokinesis” (J Nat Prod, 2016).
In brackets after ≈: the same amount, converted by molar mass. Activity calls are given as the source filed them. The rule behind the calls is not given here.

How the values were obtained:
[1] = Cytotoxicity against human K562 cells assessed as growth inhibition after 72 hrs by Alamar Blue assay; format: functional, cell-based; conditions: K562, 72 h
[2] = target: T1, Kinesin-like protein KIF20B (Homo sapiens, UniProt Q96Q89); assay: Inhibition of basal ATPase activity of N-terminal His6-tagged/SUMO-fused human MPP1 motor domain (57 to 491 residues) expressed in Escherichia coli BL21 CodonPlus by pyruvate kinase/lactate dehydrogenase-linked assay
T1 sequence (Q96Q89 whole entry, the tested form may be a part): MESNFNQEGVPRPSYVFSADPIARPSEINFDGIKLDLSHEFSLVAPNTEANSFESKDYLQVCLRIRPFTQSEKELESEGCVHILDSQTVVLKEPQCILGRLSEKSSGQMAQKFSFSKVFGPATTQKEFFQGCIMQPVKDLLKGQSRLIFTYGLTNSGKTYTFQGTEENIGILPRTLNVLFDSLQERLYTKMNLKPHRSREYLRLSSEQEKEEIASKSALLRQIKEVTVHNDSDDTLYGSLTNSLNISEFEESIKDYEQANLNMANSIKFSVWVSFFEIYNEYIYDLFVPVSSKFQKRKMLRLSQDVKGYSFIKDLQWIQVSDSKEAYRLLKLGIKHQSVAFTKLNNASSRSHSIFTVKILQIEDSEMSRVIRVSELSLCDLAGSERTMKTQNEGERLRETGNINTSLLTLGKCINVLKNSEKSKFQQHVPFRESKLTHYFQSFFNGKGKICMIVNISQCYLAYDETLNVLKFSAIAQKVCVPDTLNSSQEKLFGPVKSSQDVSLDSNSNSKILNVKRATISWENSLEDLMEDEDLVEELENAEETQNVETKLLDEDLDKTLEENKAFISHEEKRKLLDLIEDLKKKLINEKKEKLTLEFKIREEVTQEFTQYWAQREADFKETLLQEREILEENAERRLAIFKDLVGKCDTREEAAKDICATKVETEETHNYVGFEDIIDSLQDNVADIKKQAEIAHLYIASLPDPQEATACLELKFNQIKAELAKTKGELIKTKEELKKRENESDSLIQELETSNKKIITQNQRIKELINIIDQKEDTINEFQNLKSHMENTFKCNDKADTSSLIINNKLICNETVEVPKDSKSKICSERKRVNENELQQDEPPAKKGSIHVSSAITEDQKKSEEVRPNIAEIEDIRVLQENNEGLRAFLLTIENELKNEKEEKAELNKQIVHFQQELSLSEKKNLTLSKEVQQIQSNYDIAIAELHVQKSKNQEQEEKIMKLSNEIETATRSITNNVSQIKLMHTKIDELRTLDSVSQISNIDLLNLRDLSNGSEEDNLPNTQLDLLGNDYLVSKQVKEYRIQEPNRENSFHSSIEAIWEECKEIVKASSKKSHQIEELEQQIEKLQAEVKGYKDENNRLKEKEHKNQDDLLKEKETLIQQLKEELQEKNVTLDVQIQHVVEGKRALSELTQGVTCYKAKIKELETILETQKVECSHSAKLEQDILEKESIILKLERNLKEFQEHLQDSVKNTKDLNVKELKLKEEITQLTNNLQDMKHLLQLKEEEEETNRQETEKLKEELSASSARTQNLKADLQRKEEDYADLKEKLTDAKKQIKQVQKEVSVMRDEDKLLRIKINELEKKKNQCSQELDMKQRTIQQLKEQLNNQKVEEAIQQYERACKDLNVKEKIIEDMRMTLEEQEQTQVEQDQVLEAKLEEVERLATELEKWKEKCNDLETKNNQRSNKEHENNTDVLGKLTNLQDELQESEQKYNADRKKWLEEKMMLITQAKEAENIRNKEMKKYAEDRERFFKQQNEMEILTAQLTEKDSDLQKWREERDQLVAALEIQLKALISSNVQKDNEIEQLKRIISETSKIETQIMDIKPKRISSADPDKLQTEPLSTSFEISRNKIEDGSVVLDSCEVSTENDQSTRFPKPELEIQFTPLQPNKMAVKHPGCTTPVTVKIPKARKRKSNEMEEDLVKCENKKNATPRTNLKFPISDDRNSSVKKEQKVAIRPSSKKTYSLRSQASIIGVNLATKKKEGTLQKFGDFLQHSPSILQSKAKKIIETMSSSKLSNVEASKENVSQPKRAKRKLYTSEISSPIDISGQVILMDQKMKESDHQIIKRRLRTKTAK

[3] = target: T2, Chromosome-associated kinesin KIF4A (Homo sapiens) (UniProt O95239); assay: Inhibition of basal ATPase activity of human Kif4A at 200 uM by pyruvate kinase/lactate dehydrogenase-linked assay
T2 sequence (whole entry): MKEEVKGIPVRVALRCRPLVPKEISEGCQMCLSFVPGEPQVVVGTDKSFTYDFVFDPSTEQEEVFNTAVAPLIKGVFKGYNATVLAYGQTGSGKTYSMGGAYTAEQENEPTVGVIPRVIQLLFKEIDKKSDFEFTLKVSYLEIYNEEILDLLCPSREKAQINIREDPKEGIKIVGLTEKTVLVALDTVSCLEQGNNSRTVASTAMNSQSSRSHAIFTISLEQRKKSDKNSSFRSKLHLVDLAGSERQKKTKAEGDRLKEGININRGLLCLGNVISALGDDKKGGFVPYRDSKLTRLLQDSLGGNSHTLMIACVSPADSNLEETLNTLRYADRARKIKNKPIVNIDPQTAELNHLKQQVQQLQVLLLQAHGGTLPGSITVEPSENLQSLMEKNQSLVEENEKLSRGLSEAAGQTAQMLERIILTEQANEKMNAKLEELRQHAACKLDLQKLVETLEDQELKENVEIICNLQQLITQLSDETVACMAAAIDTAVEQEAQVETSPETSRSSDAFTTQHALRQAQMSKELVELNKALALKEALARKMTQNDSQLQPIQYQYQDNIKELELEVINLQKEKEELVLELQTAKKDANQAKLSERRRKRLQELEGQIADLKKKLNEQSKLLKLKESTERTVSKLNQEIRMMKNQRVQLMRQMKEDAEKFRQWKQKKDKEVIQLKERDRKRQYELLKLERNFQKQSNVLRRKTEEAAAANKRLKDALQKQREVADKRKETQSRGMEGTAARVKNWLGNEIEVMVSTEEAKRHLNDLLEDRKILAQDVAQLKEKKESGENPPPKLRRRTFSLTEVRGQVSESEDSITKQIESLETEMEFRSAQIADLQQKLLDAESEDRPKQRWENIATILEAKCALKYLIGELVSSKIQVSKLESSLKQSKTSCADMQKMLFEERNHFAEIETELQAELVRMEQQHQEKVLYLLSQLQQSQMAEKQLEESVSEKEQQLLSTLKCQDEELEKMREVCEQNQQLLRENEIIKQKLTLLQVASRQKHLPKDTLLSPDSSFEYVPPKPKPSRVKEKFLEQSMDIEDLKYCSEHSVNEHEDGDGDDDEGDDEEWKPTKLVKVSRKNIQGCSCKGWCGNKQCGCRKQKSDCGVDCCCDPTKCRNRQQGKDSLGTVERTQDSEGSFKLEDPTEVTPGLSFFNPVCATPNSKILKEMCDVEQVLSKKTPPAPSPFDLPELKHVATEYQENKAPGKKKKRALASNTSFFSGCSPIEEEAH

[4] = n-octanol-buffer distribution co-efficient, log D of the compound at pH 7.4 by shake flask method; format: physicochemical
[5] = target: T1, Kinesin-like protein KIF20B; assay: Inhibition of basal ATPase activity of N-terminal His6-tagged/SUMO-fused human MPP1 motor domain (2 to 477 residues) expressed in Escherichia coli BL21 CodonPlus by pyruvate kinase/lactate dehydrogenase-linked assay
[6] = target: T1, Kinesin-like protein KIF20B; conditions: 1 to 20 uM
[7] = target: T2, Chromosome-associated kinesin KIF4A (Homo sapiens); assay: Inhibition of microtubule-stimulated ATPase activity of human Kif4A at 200 uM by pyruvate kinase/lactate dehydrogenase-linked assay
[8] = Solubility of the compound in phosphate buffered saline at pH 7.4 after 2 hrs by turbidimetric method; format: physicochemical
[9] = target: T1, Kinesin-like protein KIF20B; conditions: 1 to 20 uM; remark: listed apart in the source
[10] = Passive permeability of the compound assessed as compound recovery at 10 uM after 5 hrs by PAMPA; format: ADME; conditions: read-out: Drug recovery
[11] = target: T3, Kinesin-like protein KIF9 (Homo sapiens) (UniProt Q9HAQ2); assay: Inhibition of basal ATPase activity of human Kif9 at 200 uM by pyruvate kinase/lactate dehydrogenase-linked assay
T3 sequence (whole entry): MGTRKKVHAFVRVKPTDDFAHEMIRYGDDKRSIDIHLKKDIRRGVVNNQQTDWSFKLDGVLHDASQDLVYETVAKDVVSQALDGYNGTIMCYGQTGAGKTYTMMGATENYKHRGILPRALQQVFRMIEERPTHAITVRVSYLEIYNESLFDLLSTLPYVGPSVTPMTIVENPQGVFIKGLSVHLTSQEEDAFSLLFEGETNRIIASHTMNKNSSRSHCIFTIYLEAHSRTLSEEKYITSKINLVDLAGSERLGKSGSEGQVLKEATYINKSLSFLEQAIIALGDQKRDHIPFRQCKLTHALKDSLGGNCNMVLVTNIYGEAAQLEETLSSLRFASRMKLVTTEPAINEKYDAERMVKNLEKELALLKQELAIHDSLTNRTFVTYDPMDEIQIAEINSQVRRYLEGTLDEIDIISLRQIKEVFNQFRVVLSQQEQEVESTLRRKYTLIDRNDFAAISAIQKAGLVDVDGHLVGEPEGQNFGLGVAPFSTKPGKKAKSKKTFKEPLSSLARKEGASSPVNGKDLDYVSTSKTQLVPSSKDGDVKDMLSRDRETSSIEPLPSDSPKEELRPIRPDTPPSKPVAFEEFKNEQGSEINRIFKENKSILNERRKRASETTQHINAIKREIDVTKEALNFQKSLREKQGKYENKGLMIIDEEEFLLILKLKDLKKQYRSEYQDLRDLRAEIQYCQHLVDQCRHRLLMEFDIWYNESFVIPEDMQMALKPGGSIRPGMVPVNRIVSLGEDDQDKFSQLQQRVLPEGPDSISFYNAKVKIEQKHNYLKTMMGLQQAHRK

[12] = Solubility of the compound in phosphate buffered saline at pH 6 after 2 hrs by turbidimetric method; format: physicochemical
[13] = Half life in mouse liver microsomes at 3 uM by LC-MS/MS method; format: ADME
[14] = Apparent passive permeability of the compound at 10 uM after 5 hrs by PAMPA; format: ADME; conditions: pampa, 5 h, 10 µM

## CCCCCC(=O)Cc1cc(O)cc2c1C(=O)Oc1cc(O)c(C(=O)O)c(CCCCC)c1O2 [PHYSODIC ACID]
[1]
  EC50: 32.6 µM
[2]
  IC50: 9.9 µM
  Imax: 85%
[3]
  inhibition: 40%
[4]
  logD: 3
[5]
  IC50: 10.4 µM
  Imax: 90%
[6]
  inhibition: Active
[7]
  inhibition: 40%
[8]
  solubility kinetic at 2 h: > 100 µM
[9]
  inhibition: Active
[10]
  recovery at 5 h, 10 µM: 77%
[11]
  inhibition: 40%
[12]
  solubility kinetic at 2 h: 65 µM (≈ 30.6 µg/mL)
[13]
  half-life at 3 µM: 22.5 min
[14]
  Papp: Impermeable
